Data on ten compounds can be found in ChEMBL document CHEMBL1201862, “PubChem BioAssay data set” (2004).

Some test systems named below: UACC-257; SNB-19; SW-620; MDA-MB-231; M14; MCF7; HCT-116; OVCAR-4; UACC-62; NCI-H226; SK-MEL-28; A549; EKVX; OVCAR-8; RPMI-8226; SF-539; MDA-N; Malme-3M; SK-OV-3; UO-31.
Common to all, as to assay: inhibition of tumour cell growth, NCI panel, 48 h

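Grown in 96-well plates, cells were treated for 48 hours with each compound at five concentrations. Insufficient inhibition: endpoint recorded as highest concentration tested. GI50: concentration for 50% inhibition of growth.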 Activity calls are given as the source filed them. Rule as the data show it: active = GI50 up to about 1.1 µM and inactive = higher. Where a SMILES comes first, the peptide text is derived from it. [ ]: non-standard residue; d: D form. ξ: configuration not given here. ξThz(5,5-Me2) = CC1(C)SCNC1C(=O)O

As to `CSCC[C@H](NC(=O)[C@H](CC(C)C)NC(=O)[C@H](Cc1c[nH]cn1)NC(=O)CNC(=O)C1N(C(=O)[C@@H](C)NC(=O)[C@H](Cc2c[nH]c3ccccc23)NC(=O)[C@H](CCC(N)=O)NC(=O)[C@@H](N)CC(N)=O)CSC1(C)C)C(N)=O` (stereo partly drawn) (H-NQW[dA][ξThz(5,5-Me2)]GHLM-NH2), the GI50 with UACC-257, in the test with SNB-19, in the test with SW-620, in the test with MDA-MB-231, in the test with M14 and in the test on MCF7 was > 25 µM (inactive) throughout. Moreover, the GI50 in the test with HCT-116, in the test on OVCAR-4, in the test on UACC-62, with NCI-H226, in the test on SK-MEL-28 and in the test with A549 was > 25 µM (inactive) in each case. For the same compound, the GI50 with EKVX, with OVCAR-8, in the test with RPMI-8226, in the test on SF-539, in the test on MDA-N and in the test with Malme-3M was > 25 µM (inactive) each time. Further, the GI50 in the test with SK-OV-3 was > 25 µM (inactive).
As for `CCOC(=O)/C(=C/Nc1c(C)n(C)n(-c2ccccc2)c1=O)C(C)=O`, the GI50 in the test on UACC-257, with SW-620, with MDA-MB-231, in the test on M14, with MCF7 and with HCT-116 was > 100 µM (inactive) each time. The GI50 in the test on OVCAR-4, in the test on UACC-62, with NCI-H226, with A549, in the test with EKVX and with OVCAR-8 was > 100 µM (inactive) throughout. Moreover, the GI50 with RPMI-8226, in the test with SF-539, with UO-31, in the test with MDA-N, in the test on Malme-3M and in the test on SK-OV-3 was > 100 µM (inactive) throughout.
Turning to `CCOP(=O)(Nc1ccc2oc(=O)c3ccccc3c2c1)OCC`, the GI50 in the test with UACC-257 is > 100 µM (inactive); in the test with SNB-19, 84.1 µM (inactive); in the test on SW-620 it was > 100 µM (inactive); in the test with MDA-MB-231, 38.4 µM (inactive); in the test with M14 it was > 100 µM (inactive); in the test on MCF7, 14.2 µM (inactive). Also, the GI50 with HCT-116 is 66.2 µM (inactive); with OVCAR-4, 60.1 µM (inactive); in the test with UACC-62, 48.1 µM (inactive); in the test on NCI-H226, 41 µM (inactive); in the test on SK-MEL-28, > 100 µM (inactive); in the test on A549, 41.9 µM (inactive). The GI50 in the test with EKVX was 46 µM (inactive); in the test with OVCAR-8, > 100 µM (inactive); in the test with RPMI-8226, 21.2 µM (inactive); with SF-539 it was > 100 µM (inactive); in the test on MDA-N, 97.5 µM (inactive); with Malme-3M, > 100 µM (inactive).
As to `CN(C)CCCNc1cnc2cc3ccccc3cc2n1`, the GI50 with UACC-257 was 19.2 µM (inactive); in the test with SNB-19, 36.1 µM (inactive); with SW-620, 37.4 µM (inactive); in the test on MDA-MB-231, 16.4 µM (inactive); in the test with M14, 21.4 µM (inactive); in the test with MCF7, 21.3 µM (inactive). Further, the GI50 in the test on HCT-116 is 32.8 µM (inactive); in the test with OVCAR-4, 23.8 µM (inactive); with UACC-62 it was 15.6 µM (inactive); in the test on NCI-H226, 16.8 µM (inactive); in the test on SK-MEL-28 it was 22.6 µM (inactive); in the test on A549, 26 µM (inactive). Further, the GI50 was 28 µM (inactive) with EKVX; 19.6 µM (inactive) in the test on OVCAR-8; 33.3 µM (inactive) in the test on RPMI-8226; 23.5 µM (inactive) in the test on SF-539; 32.8 µM (inactive) with MDA-N; 14.1 µM (inactive) with Malme-3M. Moreover, in the test with SK-OV-3, the GI50 is 55.1 µM (inactive).
For `COc1cc(/N=N/N(C)C)c(C(C)c2c3cc(OC)c(OC)cc3cc[n+]2C)cc1OC` (stereo not drawn), the GI50 was 38 µM (inactive) with UACC-257; 42.3 µM (inactive) with SNB-19; 85.7 µM (inactive) with SW-620; 26.3 µM (inactive) in the test with MDA-MB-231; 86.3 µM (inactive) with M14; 33.4 µM (inactive) in the test on MCF7. Besides, the GI50 in the test on HCT-116 is 30 µM (inactive); with OVCAR-4 it was 51.9 µM (inactive); in the test with UACC-62, 25.1 µM (inactive); with NCI-H226, 78.5 µM (inactive); with A549, > 100 µM (inactive); in the test with EKVX, > 100 µM (inactive). Also, the GI50 in the test with OVCAR-8 is 39.1 µM (inactive); with RPMI-8226, 7.76 µM (inactive); with SF-539, 10.3 µM (inactive); in the test on UO-31, > 100 µM (inactive); in the test with MDA-N it was 34.8 µM (inactive); in the test with Malme-3M, 34.4 µM (inactive). For the same compound, in the test with SK-OV-3, the GI50 is > 100 µM (inactive).
Take `CC1(C)Cc2ccccc2C(C)(Cl)C(=O)N1` (stereo not drawn): the GI50 in the test on UACC-257, in the test on SNB-19, in the test with SW-620, in the test with MDA-MB-231, in the test with M14 and in the test with MCF7 was > 10 µM (inactive) each time. The GI50 in the test on HCT-116, in the test with OVCAR-4, in the test on UACC-62, in the test on NCI-H226, in the test with SK-MEL-28 and with A549 was > 10 µM (inactive) each time. Also, the GI50 in the test on EKVX, in the test with OVCAR-8, in the test on RPMI-8226, in the test on SF-539, with UO-31 and in the test with MDA-N was > 10 µM (inactive) throughout. Moreover, the GI50 in the test on Malme-3M is > 10 µM (inactive).
In the case of `C/C=C/C=C/C1=NN(c2cccc(S(=O)(=O)O)c2)C2(C1)SCC(=O)N2c1nc2ccccc2s1` (stereo not drawn), the GI50 in the test with UACC-257 was > 100 µM (inactive); with SNB-19, 47 µM (inactive); in the test with SW-620 it was 72.1 µM (inactive); in the test with MDA-MB-231, 56.2 µM (inactive); in the test with M14, > 100 µM (inactive); in the test with MCF7 it was 47.4 µM (inactive). Further, the GI50 with HCT-116 is 67 µM (inactive); with OVCAR-4 it was 93.3 µM (inactive); in the test on UACC-62 it was 40.7 µM (inactive); in the test on NCI-H226, 30.8 µM (inactive); with SK-MEL-28, > 100 µM (inactive); in the test on A549, 86.3 µM (inactive). Also, the GI50 in the test with EKVX was 55.8 µM (inactive); with OVCAR-8, 36.2 µM (inactive); in the test on RPMI-8226, 29.9 µM (inactive); in the test with SF-539, 45.9 µM (inactive); in the test with UO-31, 47.8 µM (inactive); in the test on MDA-N it was 61 µM (inactive). For the same compound, the GI50 in the test on Malme-3M is > 100 µM (inactive).
Regarding `CC1=[N+](C)CCN1C`, the GI50 with UACC-257, with SNB-19, in the test on SW-620, in the test on MDA-MB-231, in the test with M14 and with MCF7 was > 100 µM (inactive) throughout. In addition, the GI50 in the test on HCT-116, in the test with OVCAR-4, in the test on NCI-H226, in the test with SK-MEL-28, in the test on A549 and in the test with EKVX was > 100 µM (inactive) in each case. Further, the GI50 in the test on OVCAR-8, in the test with RPMI-8226, in the test with SF-539, in the test on UO-31, with MDA-N and with Malme-3M was > 100 µM (inactive) each time. Moreover, the GI50 with SK-OV-3 is > 100 µM (inactive).
Regarding `C1CCNCC1.S=C(S)N1CCCCC1`, the GI50 is 28.4 µM (inactive) with UACC-257; 149 µM (inactive) with SNB-19; 0.573 µM (active) with SW-620; 16.1 µM (inactive) in the test on MDA-MB-231; 25.4 µM (inactive) in the test on M14; 26.4 µM (inactive) with MCF7. Moreover, the GI50 with HCT-116 was 14.1 µM (inactive); with UACC-62 it was 0.601 µM (active); with NCI-H226, 192 µM (inactive); with SK-MEL-28, 48.6 µM (inactive); in the test on A549, 0.632 µM (active); in the test on EKVX it was 111 µM (inactive). In addition, the GI50 is 61.1 µM (inactive) in the test with OVCAR-8; 3.75 µM (inactive) in the test with RPMI-8226; 80.7 µM (inactive) with SF-539; 58.7 µM (inactive) with UO-31; 13.1 µM (inactive) in the test with MDA-N; 19.1 µM (inactive) in the test with Malme-3M. In addition, in the test on SK-OV-3, the GI50 was 92.5 µM (inactive).
Consider `CC(C)CCCC(C)[C@H]1CC[C@H]2N/C(=N/Cc3ccccc3)CCC[C@]12C` (stereo partly drawn), for which the GI50 in the test on UACC-257 was 2.42 µM (inactive); in the test with SNB-19, 2.94 µM (inactive); with SW-620 it was 1.91 µM (inactive); in the test with MDA-MB-231, 2.05 µM (inactive); with M14, 2.32 µM (inactive); with MCF7, 1.71 µM (inactive). In addition, the GI50 in the test on HCT-116 was 2.6 µM (inactive); in the test on OVCAR-4, 1.98 µM (inactive); in the test on UACC-62, 1.83 µM (inactive); in the test with NCI-H226, 2.07 µM (inactive); in the test on SK-MEL-28, 1.47 µM (inactive); in the test with A549, 1.83 µM (inactive). Moreover, the GI50 was 1.67 µM (inactive) in the test on OVCAR-8; 1.59 µM (inactive) in the test with RPMI-8226; 1.83 µM (inactive) in the test with SF-539; 2.59 µM (inactive) in the test on UO-31; 1.71 µM (inactive) in the test with MDA-N; 1.97 µM (inactive) in the test with Malme-3M. The GI50 in the test on SK-OV-3 is 5.31 µM (inactive).
